Consider 1 compound from US9126986B2, “Hetero-bicyclic derivatives as HCV inhibitors” (Janssen R&D Ireland, priority 2011, dated 2015).

One data set relates to MT4-LTR-Luc cells. Kind of data set: Counterscreen MT4-LTR-Luc. Type of data set: cell-based. The note with it: MT4 T-cell line with long terminal repeat-Luc reporter. From the text: Counterscreen cell lines included a Huh-7 hepatoma cell line containing a human cytomegalovirus major immediate-early promoter-Luc construct (Huh7-CMV-Luc) and an MT4 T-cell line containing a long terminal repeat-Luc reporter (MT4-LTR-Luc).

The test system of data set [1] is HCV subgenomic replicon genotype 1b Con1 in Huh-7 lunet cells. Kind of data set: HCV replicon assay, transient transfection, genotype 1b Con1. In kind it is cell-based, HCV genotype 1b Con1. The following applies: transiently transfected Huh-7 lunet, genotype 1b Con1, two days incubation, luciferase. From the text:
(§1) In a transient set-up, a Huh-7 lunet hepatoma cell line was transiently transfected with an autonomously replicating RNA encoding a bi-cistronic expression construct. This construct comprises a firefly luciferase reporter gene preceding the NS3-NS5B subgenomic region of HCV (genotype 1a H77 or 1b Con1). Translation of the HCV subgenomic region is mediated by an internal ribosome entry site of encephalomyocarditis virus. The construct is furthermore flanked by 5′ and 3′ untranslated regions of HCV (genotype 1a H77 or 1b Con 1, respectively), which allow for replication of the RNA.
(§2) Cells were plated in 384 well plates in the presence of test and control compounds, which were added in various concentrations. Following an incubation of two days, replication of the HCV subgenomic replicon RNA was measured by assaying luciferase activity (using standard luciferase assay substrates and reagents and a Perkin Elmer ViewLux™ ultraHTS microplate imager). HCV subgenomic replicon containing cells in the control cultures have high luciferase expression in the absence of any inhibitor. The inhibitory activity of the compound was monitored, enabling a dose-response curve for each test compound. EC50 values were then calculated, which represent the amount of compound required to decrease the level of detected luciferase activity by 50%, or more specifically, to reduce the ability of the genetically linked HCV subgenomic RNA to replicate.

In data set [2] the test system is HCV replicon type 1b in Huh-Luc cells. Kind of data set: HCV replicon assay, stable transfection (Huh-7 luc/neo, luciferase readout). Type of data set: cell-based, HCV type 1b. The following applies: stably transfected Huh-Luc cells, genotype 1b, three days incubation, average where tested more than once, read-out: HCV-REP-HUH7LUC_EC50. An excerpt:
The compounds of formula (I) were examined for inhibitory activity in the HCV replicon. This cellular assay is based on a bicistronic expression construct, as described by Lohmann et al. (Science (1999) 285: 110-113; Journal of Virology (2003) 77: 3007-3019) with modifications described by Krieger et al. (Journal of Virology (2001) 75: 4614-4624), and Lohmann et al. (Journal of Virology (2003) 77: 3007-3019) for genotype 1b and by Yi et al. (Journal of Virology (2004) 78: 7904-7915) for genotype 1a, in a multi-target screening strategy.
The method was as follows. The assay utilized the stably transfected cell line Huh-7 luc/neo (hereafter referred to as Huh-Luc). This cell line harbors an RNA encoding a bicistronic expression construct comprising the wild type NS3-NS5B regions of HCV type 1b translated from an Internal Ribosome Entry Site (IRES) from encephalomyocarditis virus (EMCV), preceded by a reporter portion (FfL-luciferase), and a selectable marker portion (neoR, neomycine phosphotransferase). The construct is flanked by 5′ and 3′ NTRs (non-translated regions) from HCV type 1b. Continued culture of the replicon cells in the presence of G418 (neoR) is dependent on the replication of the HCV RNA. The stably transfected replicon cells that replicate HCV RNA autonomously and to high levels, encoding inter alia luciferase, were used for screening the antiviral compounds.
The replicon cells were plated in 384 well plates in the presence of the test and control compounds which were added in various concentrations. Following an incubation of three days, HCV replication was measured by assaying luciferase activity (using standard luciferase assay substrates and reagents and a Perkin Elmer ViewLux™ ultraHTS microplate imager). Replicon cells in the control cultures have high luciferase expression in the absence of any inhibitor. The inhibitory activity of the compound was monitored on the Huh-Luc cells, enabling a dose-response curve for each test compound. EC50 values were then calculated, which represent the amount of compound required to decrease the level of detected luciferase activity by 50%, or more specifically, to reduce the ability of the genetically linked HCV replicon RNA to replicate.
Where a compound of formula (I) was tested more than once in the replicon assay, the average of all test results is given in this Table 1.

Data set [3] concerns HCV subgenomic replicon genotype 1a H77 in Huh-7 lunet cells. Description: HCV replicon assay, transient transfection, genotype 1a H77. Type of data set: cell-based, HCV genotype 1a H77. The note with it: transiently transfected Huh-7 lunet, genotype 1a H77, two days incubation, luciferase.
Excerpt: as §1, §2

Consider `COC(=O)N[C@H](C(=O)N1CCCC1c1[nH]c2cc(-c3ccc(-c4ccc(-c5cnc([C@@H]6CCCN6C(=O)[C@@H](NC(=O)OC)C(C)C)[nH]5)cc4)cc3)ccc2c(=O)c1F)C(C)C` (single isomer, unassigned) [Compound 18b], for which the CC50 in the data set with MT4-LTR-Luc cells is greater than 984 nM. Moreover, the values for the EC50 in data set [1], in data set [2] and in data set [3] were 6.7 nM, 4.4 nM and 65.6 nM, respectively.
